Experimental data published in patent publication US20050261264A1, “Rare-earth ternary complex” (priority 2000, published 2005).

Assays:
Type in all cases: physicochemical
[1] = Number of moles of bound water per mole of complex (TG-DTA); details: for Bound water (number of moles of bound water per mole of complex): Table 1, dried samples for the ternary complexes
Outline: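 Bound water per mole of Eu(PMS)3(TPPO)8 complex derived from TG-DTA weight loss at 100° C. Crystals measured as recrystallized from water-methanol and again after vacuum drying 3 h at 140° C, […].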

[2] = Mechanoluminescence of polycarbonate film hit with a metal rod; details: polycarbonate film about 6 μm thick, visual
Procedure: The rare earth ternary complex of the present invention can be used as a mechanoluminescence material. The term mechanoluminescence as used here refers to a phenomenon whereby physical force (such as pressure, vibration energy or the like) imparted to the rare earth ternary complex is converted into optical energy, causing the complex to emit light.
A 50 mg quantity of the Eu(PMS)3(Phen)m obtained in Example 8 and 450 mg of polycarbonate were dissolved in 3 mL of methylene chloride and then uniformly stirred to obtain a polymer solution. This polymer solution was then cast onto a glass plate, after which it was dried in vacuo overnight to remove the solvent, forming a polycarbonate film containing Eu(PMS)3(Phen)m, which is about 6 μm thick, on the glass plate.
A polycarbonate film containing Eu(PMS)3, which is about 6 μm thick, was formed on a glass plate in the same manner as in Example 22, except that 42 mg of the Eu(PMS)3 prepared in Producing Example 1 was used instead of Eu(PMS)3 (Phen) m.

[3] = Luminescence quantum yield and luminescence intensity in solution; details: acetonitrile solution; for Relative luminescence intensity: Eu 0.05 mol/L, relative to Eu(PMS)3 (Comparative Example 7) = 1; for Luminescence quantum yield: europium ion 0.05 mol/L, excitation 465 nm, luminescence 612 nm
Procedure: (§1) The intensity of luminescence and the luminescence quantum yield, the quotient of dividing the number of photons emitted from a sample by the number of photons absorbed into the sample, were measured with an SS-25 from JASCO Corporation.
The luminescence quantum yield of an acetonitrile solution of the Eu(PMS)3(TPPO)8 obtained in Example 1 (europium ion concentration: 0.05 mol/L) was measured (excitation wavelength: 465 nm, maximum luminescence wavelength: 612 nm, luminescence wavelength used in measurement: 612 nm).
The solutions prepared in Examples 12 to 14 and Comparative Examples 7 to 9 and Comparative Example B were measured for luminescence intensity at the respective maximum luminescence wavelengths.
The relative luminescence intensity of the solutions used in Examples 12 to 14 and Comparative Example B: (luminescence intensity in each of Examples 12 to 14)/(luminescence intensity in Comparative Example 7) was calculated, letting 1 be the luminescence intensity in Comparative Example 7 (solution of a rare earth complex in which the ligand Z was not coordinated).
Similarly, the relative luminescence intensity in Comparative Example 9: (luminescence intensity in Comparative Example 9)/(luminescence intensity in Comparative Example 8) was calculated, letting 1 be the luminescence intensity in Comparative Example 8 (solution of a known β-diketone-type of rare earth complex in which the ligand Z was not coordinated). The relative luminescence intensity of the solution used in Comparative Example B was 1.6 times.
The luminescence quantum yield of an acetone-d6 solution of the Nd(PMS)3(TPPO)8 obtained in Example 2 (neodymium ion concentration: 0.05 mol/L) was measured (excitation wavelength: 585 nm, maximum luminescence wavelength: 1064 nm, luminescence wavelength used in measurement: 1064 nm).
The solutions prepared in Examples 15 and 16 and Comparative Examples 10 were measured for luminescence intensity at the respective maximum luminescence wavelengths. The relative luminescence intensity in Examples 15 and 16: (luminescence intensity in each of Examples 15 and 16)/(luminescence intensity in Comparative Example 10) was calculated, letting 1 be the luminescence intensity in Comparative Example 10 (rare earth complex in which the ligand Z was not coordinated).

[4] = Miscibility with a polymer matrix, visual evaluation; design: key to Miscibility, PMMA: ⊚: dissolves up to 30 wt %; ◯: dissolves up to 5 wt %; Δ: disperses up to 5 wt %, but there is turbidity; X: repelled at the polymer surface
Outline: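 Complex added to various polymer media at set concentrations and miscibility judged visually: dissolves up to 30 wt %, dissolves up to 5 wt %, disperses up to 5 wt % with turbidity, or repelled at polymer surface.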

[5] = Miscibility with solvents, visual evaluation at 5 wt %; design: key: ⊚: dissolves at room temperature; ◯: dissolves when heated for 5 minutes at 40° C.; Δ: dissolves under heating, but cooling precipitates crystals; X: does not dissolve; details: complex added at 5 wt %
Procedure: The miscibility of the rare earth complex with various media was evaluated as follows.
1) Miscibility with Solvents

[6] = Luminescence quantum yield and luminescence intensity in PMMA polymer matrix composition; details: PMMA rod; for Relative luminescence intensity: Eu 0.7 wt %, relative to Eu(PMS)3 (Comparative Example 11) = 1
Procedure: as §1
A 1 mL quantity of refined anhydrous methyl methacrylate (MMA), 0.5 mg of AIBN, and 148 mg (0.7 wt %) as the rare earth ion concentration) of the Eu (PMS)3 (TPPO)8 obtained in Example 1 were mixed, the mixture was transferred to a Pyrex tube, and the inside of the tube was deaerated and then sealed. By reacting for 5 hours at 60° C., the polymerization of MMA was carried out. The resulting PMMA containing Eu(PMS)3 (TPPO)8 was taken out of the Pyrex tube, and a rod-shaped polymer matrix composition was obtained.
The polymer matrix compositions prepared in Examples 17 to 19 and Comparative Example 11 were measured for luminescence intensity at the respective maximum luminescence wavelengths. The relative luminescence intensity in Examples 17 to 19: (luminescence intensity in each of Examples 17 to 19)/(luminescence intensity in Comparative Example 11) was calculated, letting 1 be the luminescence intensity in Comparative Example 11 (rare earth complex in which the ligand Z was not coordinated).
A rod-shaped polymer matrix composition containing […] was obtained in the same manner as in Example 17, except that 148 mg (rare earth ion concentration: 0.7 wt %) of the Nd(PMS)3 (TPPO)8 obtained in Example 2 was used instead of Eu(PMS)3 (TPPO)8.
The polymer matrix compositions prepared in Examples 20 and 21 and Comparative Example 12 were measured for luminescence intensity at the respective maximum luminescence wavelengths. The relative luminescence intensity in Examples 20 and 21: (luminescence intensity in each of Examples 20 and 21)/(luminescence intensity in Comparative Example 12) was calculated, letting 1 be the luminescence intensity in Comparative Example 12 (rare earth complex in which the ligand Z was not coordinated).

Compound	Bound water (number of moles of bound water per mole of complex) [1]	Number of moles of bound water per mole of complex ([1]; after drying in vacuo at 140° C.)	Number of moles of bound water per mole of complex ([1]; before drying (crystals as obtained), weight reduction at 100° C.)	Light emission when film is hit with a metal rod (mechanoluminescence) [2]	Relative luminescence intensity [3]	Luminescence quantum yield [3] [%]	Miscibility, Epoxy resin [4]	Miscibility, Nafion [4]	Miscibility, PMMA [4]	Miscibility, Acetone [5]	Miscibility, Chloroform [5]	Miscibility, Toluene [5]	Miscibility, Water [5]	Relative luminescence intensity [6]	Luminescence quantum yield ([6]; rare earth ion 0.7 wt %, excitation 465 nm, luminescence 612 nm) [%]
O=S(=O)([N-]S(=O)(=O)C(F)(F)F)C(F)(F)F.O=S(=O)([N-]S(=O)(=O)C(F)(F)F)C(F)(F)F.O=S(=O)([N-]S(=O)(=O)C(F)(F)F)C(F)(F)F.[Eu+3].c1cnc2c(c1)ccc1cccnc12.c1cnc2c(c1)ccc1cccnc12.c1cnc2c(c1)ccc1cccnc12.c1cnc2c(c1)ccc1cccnc12 [Eu(PMS)3(Phen)m]	0.00	water had been completely removed	3.06	emits red light	49.5	5.1	◯ (dissolves up to 5 wt %)	◯ (dissolves up to 5 wt %)	◯ (dissolves up to 5 wt %)	⊚	Δ	Δ	X	5566	
O=S(=O)([N-]S(=O)(=O)C(F)(F)F)C(F)(F)F.O=S(=O)([N-]S(=O)(=O)C(F)(F)F)C(F)(F)F.O=S(=O)([N-]S(=O)(=O)C(F)(F)F)C(F)(F)F.[Eu+3] [Eu(PMS)3, reference compound]	2.08			no light emission was noted	1.0	5.0	Δ (disperses up to 5 wt %, but there is turbidity)	Δ (disperses up to 5 wt %, but there is turbidity)	X	⊚	X	X	⊚	1.0	2.5
